Values of other authors, collected in patent publication US20190374461A1, “Treatment apparatus and mechanisms for an infected nail” (priority 2018, published 2019).
Several values for one entry are separate records, joined by “and”; a condition that tells them apart may be missing. Identical values can stand only once. Counter-ions that a name gives are not always drawn. Like-named read-outs stand apart in the source and are kept apart here.

Tested on: nail infections

C[C@@H](n1cnc2cc(Cl)ccc2c1=O)[C@](O)(Cn1cncn1)c1ccc(F)cc1F [Albaconazole]
side effects compared with Lamisil (in vivo, po): prone to fewer side effects than Lamisil

CCC(C)(C)c1ccc(CC(C)CN2C[C@@H](C)O[C@@H](C)C2)cc1 (some centres unmarked) [Amorolfine, amorolfine]
cure rates (topical, mild nail infections without nail matrix involvement): 40 to 55%
effectiveness against severe nail infections (topical, severe nail infections involving the nail bed): not effective

Cc1cc(C2CCCCC2)n(O)c(=O)c1 [Ciclopirox, ciclopirox]
cure rate (topical, 8% strength): about 8.5%

CN(C/C=C/C#CC(C)(C)C)Cc1cccc2ccccc12 [Lamisil, terbinafine hydrochloride]
mycological cure rate (oral treatment of nail infections): 46%

CC[C@@H]([C@H](C)O)n1ncn(-c2ccc(N3CCN(c4ccc(OC[C@@H]5CO[C@@](Cn6cncn6)(c6ccc(F)cc6F)C5)cc4)CC3)cc2)c1=O [Posaconazole]
side effects compared with Lamisil (oral treatment): prone to fewer side effects than Lamisil

OB1OCc2cc(F)ccc21 [Tavaborole, tavaborole]
complete cure, share of patients (topical, 600 patients in the study): 6%

C=C1CCN([C@H](C)[C@](O)(Cn2cncn2)c2ccc(F)cc2F)CC1 [efinaconazole]
cure rates (topical, only mild infections not involving the nail bed): 17.8% and 15.2%
